Measurements taken from ChEMBL document CHEMBL1158077, “Microbial transformation and butyrylcholinesterase inhibitory activity of (-)-caryophyllene oxide and its derivatives” (J Nat Prod, 2006).

biological target: Cholinesterase (Equus caballus, UniProt P81908); test: Inhibition of horse serum BuChE by Ellman's method
Sequence (P81908 whole entry): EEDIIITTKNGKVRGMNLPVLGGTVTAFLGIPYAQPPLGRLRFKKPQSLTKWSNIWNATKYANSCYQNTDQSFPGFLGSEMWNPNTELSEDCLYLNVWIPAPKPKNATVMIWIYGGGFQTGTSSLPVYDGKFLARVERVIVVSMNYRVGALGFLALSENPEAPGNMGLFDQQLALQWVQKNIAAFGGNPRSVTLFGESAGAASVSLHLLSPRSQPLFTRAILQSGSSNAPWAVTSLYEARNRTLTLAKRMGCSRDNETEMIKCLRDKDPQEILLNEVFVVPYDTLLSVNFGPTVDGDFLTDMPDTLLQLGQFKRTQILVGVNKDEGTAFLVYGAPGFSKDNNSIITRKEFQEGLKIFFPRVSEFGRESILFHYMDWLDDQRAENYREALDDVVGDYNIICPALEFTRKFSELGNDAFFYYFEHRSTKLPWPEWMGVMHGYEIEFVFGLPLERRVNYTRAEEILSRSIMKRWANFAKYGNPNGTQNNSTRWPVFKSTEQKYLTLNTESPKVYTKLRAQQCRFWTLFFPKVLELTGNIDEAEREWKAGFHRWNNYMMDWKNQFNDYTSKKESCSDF

Structure (SMILES) | IC50
CC1(C)C[C@H]2[C@H]1CC[C@]1(C)[C@H](O)CC[C@@]2(O)[C@H]1O | 23.6 µM
CC1(C)C[C@@H]2[C@@H](CO)CC[C@H]3O[C@]3(C)[C@H](O)C[C@H]21 | 155 µM
CC1(C)C[C@@H]2[C@@H](CO)CC[C@H]3O[C@]3(C)CC[C@H]21 | 26.4 µM
C=C1CC[C@H]2O[C@]2(C)CC[C@@H]2[C@@H]1C[C@]2(C)CO | 10.9 µM
C=C1CC[C@@H](O)[C@](C)(O)CC[C@@H]2[C@@H]1CC2(C)C | 44 µM
CC1(C)C[C@H](O)[C@]23CC[C@@H](O)[C@](CO)(CC[C@@H]12)C3 | 43.6 µM
CC1(C)C[C@H](O)[C@]23CC[C@@H](O)[C@](C)(CC[C@@H]12)C3 | 456 µM
C=C1CC[C@@H]2O[C@]2(C)CC[C@@H]2[C@@H]1CC2(C)C | 208 µM
C=C1CC[C@H]2O[C@]2(C)CC[C@@H]2[C@@H]1C[C@@]2(C)CO | 189 µM
CC1(C)C[C@@H]2C(=O)CC[C@H]3O[C@]3(C)C[C@H](O)[C@H]21 | 459 µM
